Test [1] concerns the target T1, Nociceptin receptor (Homo sapiens, UniProt P41146). The test can be described thus: Agonist activity at human NOP receptor expressed in CHO cells assessed as stimulation of [35S]GTPgammaS binding relative to nociceptin/orphanin FQ (1-13)NH2 peptide. It is filed as functional, cell-based. (GTPγS is a poorly hydrolysed GTP analogue; its binding reports G protein activation.)

The target in test [2] is T1, Nociceptin receptor. The test can be described thus: Agonist activity at human NOP receptor expressed in CHO cells assessed as stimulation of [35S]GTPgammaS binding. It is filed as functional, cell-based.
Test [3] has as its target T1, Nociceptin receptor. The test can be described thus: Displacement of [3H]N/OFQ from human NOP receptor expressed in CHO cells. It is filed as cell-based.
For test [4], the target named is T1, Nociceptin receptor. The test can be described thus: Binding affinity to human NOP receptor.
The target in test [5] is T1, Nociceptin receptor. The test can be described thus: Agonist activity at human NOP receptor by [35S]GTPgammaS binding assay. It is filed as functional.

Peptide text beside a SMILES is read from it.

T1 sequence (P41146 whole entry): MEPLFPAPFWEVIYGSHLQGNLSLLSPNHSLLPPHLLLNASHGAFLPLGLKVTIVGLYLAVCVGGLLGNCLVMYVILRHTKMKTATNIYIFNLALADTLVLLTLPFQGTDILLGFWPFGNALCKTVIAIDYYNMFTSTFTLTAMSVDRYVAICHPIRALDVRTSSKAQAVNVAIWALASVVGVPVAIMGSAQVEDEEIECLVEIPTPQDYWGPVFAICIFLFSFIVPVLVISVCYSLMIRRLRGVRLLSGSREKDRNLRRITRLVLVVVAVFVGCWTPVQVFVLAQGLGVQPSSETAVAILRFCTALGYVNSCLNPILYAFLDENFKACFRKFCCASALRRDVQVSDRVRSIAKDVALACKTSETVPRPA

On to `C[C@H](NC(=O)[C@@H]1CCCCNC(=O)C[C@H](NC(=O)CNC(=O)[C@@H](NC(=O)[C@H](Cc2ccccc2)NC(=O)CNC(=O)CNC(=O)[C@@H](N)Cc2ccccc2)[C@@H](C)O)C(=O)N[C@@H](CCCNC(=N)N)C(=O)N[C@@H](CCCCN)C(=O)N1)C(=O)N[C@@H](CCCNC(=N)N)C(=O)N[C@@H](CCCCN)C(N)=O`, for which the Activity at Nociceptin receptor [1] was found to be 92%.

As to `C[C@H](NC(=O)[C@@H]1CCCCNC(=O)C[C@@H](NC(=O)CNC(=O)[C@@H](NC(=O)[C@H](Cc2ccccc2)NC(=O)CNC(=O)CNC(=O)[C@@H](N)Cc2ccccc2)[C@@H](C)O)C(=O)N[C@@H](CCCNC(=N)N)C(=O)N[C@@H](CCCCN)C(=O)N1)C(=O)N[C@@H](CCCNC(=N)N)C(=O)N[C@@H](CCCCN)C(N)=O`, the EC50 at Nociceptin receptor [2] turned out to be 1.6 nM. For the same compound, on Nociceptin receptor [3], the inhibition constant (Ki) worked out at 0.27 nM.

For `C[C@H](NC(=O)[C@H](CCCCN)NC(=O)[C@H](CCCCN)NC(=O)[C@H](CCCN=C(N)N)NC(=O)[C@@H](CC(=O)O)NC(=O)CNC(=O)[C@@H](NC(=O)[C@H](Cc1ccccc1)NC(=O)CNC(=O)CNC(=O)[C@@H](N)Cc1ccccc1)[C@@H](C)O)C(=O)N[C@@H](CCCN=C(N)N)C(=O)N[C@@H](CCCCN)C(N)=O`, the concentration for a half-maximal effect (EC50) at Nociceptin receptor [2] was determined as 106 nM. For the same compound, the Ki on Nociceptin receptor [3] came out at 1.79 nM.

Turning to `C[C@H](NC(=O)[C@@H]1CCCCNC(=O)C[C@H](NC(=O)[C@@H](NC(=O)[C@H](Cc2ccccc2)NC(=O)CNC(=O)CNC(=O)[C@@H](N)Cc2ccccc2)[C@@H](C)O)C(=O)N[C@@H](C)C(=O)N[C@@H](CCCN=C(N)N)C(=O)N[C@@H](CCCCN)C(=O)N1)C(=O)N[C@@H](CCCN=C(N)N)C(=O)N[C@@H](CCCCN)C(N)=O` (HELM PEPTIDE1{F.G.G.F.T.D.A.R.K.K.A.R.K.[am]}$PEPTIDE1,PEPTIDE1,6:R3-10:R3$$$V2.0), the EC50 at Nociceptin receptor [2] came out at 4.12 nM. Moreover, on Nociceptin receptor [3], the affinity corresponds to a Ki of 0.34 nM.

As to `C[C@H](NC(=O)[C@@H]1CSSC[C@H](NC(=O)[C@@H](NC(=O)[C@H](Cc2ccccc2)NC(=O)CNC(=O)CNC(=O)[C@@H](N)Cc2ccccc2)[C@@H](C)O)C(=O)N[C@@H](C)C(=O)N[C@@H](CCCNC(=N)N)C(=O)N[C@@H](CCCCN)C(=O)N1)C(=O)N[C@@H](CCCNC(=N)N)C(=O)N[C@@H](CCCCN)C(N)=O` (HELM PEPTIDE1{F.G.G.F.T.C.A.R.K.C.A.R.K.[am]}$PEPTIDE1,PEPTIDE1,6:R3-10:R3$$$V2.0), the Ki at Nociceptin receptor [4] worked out at 0.83 nM.

On Nociceptin receptor [5], `C[C@H](NC(=O)[C@@H]1CSSC[C@H](NC(=O)CNC(=O)[C@@H](NC(=O)[C@H](Cc2ccccc2)NC(=O)CNC(=O)CNC(=O)[C@@H](N)Cc2ccccc2)[C@@H](C)O)C(=O)N[C@@H](CCCN=C(N)N)C(=O)N[C@@H](CCCCN)C(=O)N1)C(=O)N[C@@H](CCCN=C(N)N)C(=O)N[C@@H](CCCCN)C(N)=O` (HELM PEPTIDE1{F.G.G.F.T.G.C.R.K.C.A.R.K.[am]}$PEPTIDE1,PEPTIDE1,7:R3-10:R3$$$V2.0) gave an EC50 of 0.69 nM. Besides, at Nociceptin receptor [4], the Ki is 0.1 nM.

Regarding `C[C@H](NC(=O)[C@H](CCCCN)NC(=O)[C@H](CCCCN)NC(=O)[C@H](CCCNC(=N)N)NC(=O)[C@@H](CC(=O)O)NC(=O)CNC(=O)[C@@H](NC(=O)[C@H](Cc1ccccc1)NC(=O)CNC(=O)CNC(=O)[C@@H](N)Cc1ccccc1)[C@@H](C)O)C(=O)N[C@@H](CCCNC(=N)N)C(=O)N[C@@H](CCCCN)C(N)=O`, the Activity at Nociceptin receptor [1] is 100%.

Turning to H-FGGFTDARKKARK-NH2, on Nociceptin receptor [1], the Activity was 122%. Also, the EC50 at Nociceptin receptor [2] was 22.3 nM. The Ki at Nociceptin receptor [3] came to 0.54 nM.

Turning to `C[C@H](NC(=O)[C@@H]1CCCCNC(=O)C[C@H](NC(=O)[C@@H](NC(=O)[C@H](Cc2ccccc2)NC(=O)CNC(=O)CNC(=O)[C@@H](N)Cc2ccccc2)[C@@H](C)O)C(=O)N[C@@H](C)C(=O)N[C@@H](CCCNC(=N)N)C(=O)N[C@@H](CCCCN)C(=O)N1)C(=O)N[C@@H](CCCNC(=N)N)C(=O)N[C@@H](CCCCN)C(N)=O` (HELM PEPTIDE1{F.G.G.F.T.D.A.R.K.K.A.R.K.[am]}$PEPTIDE1,PEPTIDE1,6:R3-10:R3$$$V2.0), on Nociceptin receptor [1], the Activity was found to be 80%.

One may read the EC50 as the concentration at which the effect is half-maximal. The term Ki denotes the dissociation constant of the complex between target and ligand, obtained from inhibition or displacement. A low value points to higher affinity.

The record behind these values is ChEMBL document CHEMBL1155862, “High affinity conformationally constrained nociceptin/orphanin FQ(1-13) amide analogues” (J Med Chem, 2008).
